Here are results for 7 molecules from article PMC9573353 (Molecules, 2022).

Data set [1] deals with Acetylcholinesterase (AChE) (Electrophorus electricus, UniProt O42275). The data set can be described thus: biochemical. The class given is biochemical. The conditions noted are these: mean ± standard deviation, triplicate; '-' = no inhibitory activity.
For data set [2], the target named is butyrylcholinesterase (BChE) (Equus caballus, UniProt P81908). The data set is described as follows: biochemical. The class given is biochemical. The conditions noted are these: mean ± standard deviation, triplicate.
Sequence of butyrylcholinesterase (BChE) (P81908 whole entry): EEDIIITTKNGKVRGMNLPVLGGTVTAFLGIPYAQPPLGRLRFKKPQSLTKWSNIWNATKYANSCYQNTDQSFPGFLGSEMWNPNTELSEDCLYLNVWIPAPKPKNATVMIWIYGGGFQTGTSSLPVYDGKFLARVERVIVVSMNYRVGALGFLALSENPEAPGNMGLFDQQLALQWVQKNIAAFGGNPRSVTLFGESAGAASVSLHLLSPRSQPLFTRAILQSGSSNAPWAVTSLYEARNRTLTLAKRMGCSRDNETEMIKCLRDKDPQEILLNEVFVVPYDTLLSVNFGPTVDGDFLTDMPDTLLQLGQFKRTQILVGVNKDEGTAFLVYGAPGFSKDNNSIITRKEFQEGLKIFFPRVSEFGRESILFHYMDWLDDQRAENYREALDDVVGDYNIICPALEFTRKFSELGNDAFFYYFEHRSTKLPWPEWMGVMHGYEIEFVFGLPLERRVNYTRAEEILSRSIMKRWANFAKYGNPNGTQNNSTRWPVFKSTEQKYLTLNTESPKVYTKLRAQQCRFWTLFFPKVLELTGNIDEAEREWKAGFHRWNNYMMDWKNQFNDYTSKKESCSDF
Data set [3] in a line: DPPH radical scavenging assay. The following applies: 30 min at 25 °C; '-' = did not capture the radical. Here is the method:
Antioxidant activity of the tested compounds was measured in terms of hydrogen donating or radical scavenging ability using the stable radical 2,2′-diphenyl-1-picrylhydrazyl (DPPH). The 50 μL of various concentrations of tested solutions (5 μM–1000 μM) were placed in a cuvette, 1 mL of ethanolic solution of DPPH was added, and the final DPPH concentration was kept constant (c = 8 × 10^−4 M). The mixture was incubated for 30 min at 25 °C. […] All determinations were performed in triplicate. The concentrations of tested compounds were expressed as final concentrations. Inhibition of DPPH expressed in percentage was calculated according to the equation:(2) Inhibition (%)=AC(0)−AC(t)/AC(0)·100 where AC(0) is the absorbance of the control at t = 0 min, and AC(t) is the absorbance of the antioxidant at t = 30 min. Data were used to calculate the IC50 value by a nonlinear fit of compound concentration values vs. inhibition percentage.

Data set [4] can be described thus: Protonation constants by potentiometric titration with spectrophotometric detection. The conditions noted are these: for Protonation constant lgK1: titration from pH 10, for trans-1 first of two protonation steps. It is filed as physicochemical. From the text:
(§1) The third one in this equilibrium system must be a complex between the previous two species. Detailed fitting studies by application of the PSEQUAD program confirmed the existence of a complex with a 1:1 (FeL^2+) composition. Furthermore, the apparent formation constant of these species (for the reaction Fe^3+ + HL ⇌ FeL^2+ + H^+) and the individual spectrum of the species could be estimated by this procedure. […] The apparent formation constant determined from this spectrum series and that regarding the titration with the ligand was lgK’FeL = 4.75 ± 0.10. Using this apparent formation constant, the molar fractions of the free Fe^3+ and the 1:1 complex could be calculated as functions of the (protonated) ligand concentration (pHL), as shown by the inset of Figure 12a. Since the spectrophotometric titration was carried out in an acidic solution, in order to estimate the formation constant for the Fe^3+ + L^− ⇌ FeL^2+ reaction, the protonation constant of the deprotonated ligand (L^−) was also determined (by potentiometric titration, starting from the fully deprotonated form at pH = 10, Figure 13), lgK1 = 7.81 ± 0.15. The sum of the apparent formation constant and the protonation constant gives the equilibrium constant regarding the reaction above (lgKFeL = 12.56 ± 0.15).
(§2) The protonation and complex formation constants were determined similarly for the other three compounds. The corresponding figures can be found in the Supplementary Materials (Figures S67 and S68 for cis-2, Figures S69 and S70 for cis-4, and Figures S71 and S72 for trans-1). In the case of trans-1, two protonation steps were observed due to the two OH groups. For calculating the formation constant, lgK2 was taken into account, corresponding to the proton in the OH group on the pyranone ring. This can be exchanged by the Fe^3+ ion easier than the other proton in the phenolic moiety.
A 0.01–0.01 M phosphate–borate–acetate buffer solution was used for potentiometric titration. A 50 cm^3 beaker was filled with 25 cm^3 of buffer solution containing the appropriate amount of ligand, and the pH was adjusted to 10.0 by adding 2 M NaOH solution. The pH was determined using a Consort C3010 multi-parameter analyzer (Consort bvba, Turnhout, Belgium) equipped with a combined glass electrode. The solution was circulated with an IKA PA-SF (IKA Labortechnik, Staufen, Germany) peristaltic pump through a Hellma (176.000-QS 10 mm) flow through the cuvette. Titration was carried out with 6 M H2SO4 solution. The spectra were recorded with a Specord S600 spectrophotometer after pH stabilization.

The nature of data set [5]: Fe3+ complex formation constants by spectrophotometric titration (PSEQUAD). The class given is physicochemical. The following applies: for Apparent formation constant lgK'FeL, Fe^3+ + HL ⇌ FeL^2+ + H^+: 1:1 complex; for Formation constant lgKFeL, Fe^3+ + L^− ⇌ FeL^2+: sum of apparent formation constant and protonation constant. As for the experimental part:
Since Fe^3+ ions strongly hydrolyze, acidic solutions were applied for the spectrophotometric titrations to determine the complex formation constants. Both types of titrations were carried out: increasing the iron(III) concentration at constant ligand concentration and increasing ligand concentration at constant CFe(III).
as §1, §2
Two titration series were used to determine the stability constants of equilibrium systems containing Fe^3+ and ligand. The iron(III) content was increased at constant ligand content, the ligand concentration was increased at constant Fe(III) content, and the spectral changes were recorded with a Specord S600 spectrophotometer (Analytic Jena GmbH, Jena, Germany) in the 190–900 nm wavelength range. […] The two series were evaluated together using PSEQUAD software in the 210–430 nm range.

For data set [6] the following is noted: previously tested; read-out: DPPH IC50; cited from earlier work. A general note: The DPPH test is a chemical assay of radical scavenging.

Structures are written as SMILES. Read-outs that look alike come from different tables or passages of the source.

Sequence of Acetylcholinesterase (AChE) (O42275 24-633): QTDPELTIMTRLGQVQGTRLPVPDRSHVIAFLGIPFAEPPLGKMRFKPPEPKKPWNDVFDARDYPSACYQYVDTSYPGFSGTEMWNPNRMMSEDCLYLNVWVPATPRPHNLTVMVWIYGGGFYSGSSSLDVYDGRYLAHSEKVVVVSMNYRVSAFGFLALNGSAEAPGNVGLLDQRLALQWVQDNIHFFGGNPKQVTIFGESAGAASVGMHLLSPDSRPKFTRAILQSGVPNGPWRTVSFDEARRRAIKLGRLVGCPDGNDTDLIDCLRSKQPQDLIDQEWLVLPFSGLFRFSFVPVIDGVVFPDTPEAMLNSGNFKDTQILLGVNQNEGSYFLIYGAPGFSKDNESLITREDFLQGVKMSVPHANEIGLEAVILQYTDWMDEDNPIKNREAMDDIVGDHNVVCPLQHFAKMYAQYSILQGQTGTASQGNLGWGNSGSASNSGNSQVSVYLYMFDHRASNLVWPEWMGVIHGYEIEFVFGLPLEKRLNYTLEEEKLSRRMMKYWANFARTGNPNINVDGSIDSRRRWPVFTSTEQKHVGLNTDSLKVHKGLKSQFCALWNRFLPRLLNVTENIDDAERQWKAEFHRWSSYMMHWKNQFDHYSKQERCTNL

What is called IC50 is the concentration that gives 50% inhibition. Turning to `O=c1cc(/C=C\c2ccccc2C(F)(F)F)occ1O` [cis-2, (Z)-5-hydroxy-2-(2-(trifluoromethyl)styryl)-4H-pyran-4-one], the IC50 in data set [1] was above 1000 µM; in data set [2], 458 ± 30.2 µM; in data set [3], above 1000 µM. Moreover, in data set [4], the “Protonation constant lgK1” value is given as 7.95 ± 0.10. Further, the “Apparent formation constant lgK'FeL, Fe^3+ + HL ⇌ FeL^2+ + H^+” value (shortened to “Apparent formation constant lgK'FeL”) in data set [5] (acidic solution) is 4.38 ± 0.20.

With `O=c1cc(/C=C/c2ccccc2O)occ1O` [trans-1, (E)-5-hydroxy-2-(2-hydroxystyryl)-4H-pyran-4-one], the IC50 is above 1000 µM in data set [1], 601 ± 34.5 µM in data set [2] and 251 ± 45.6 µM in data set [3]. The “Protonation constant lgK1” value in data set [4] amounted to 8.9 ± 0.20. For the same molecule, the “Protonation constant lgK2” value in data set [4] (trans-1: proton of the OH group on the pyranone ring) is 7.25 ± 0.20. Further, the “Formation constant lgKFeHL, Fe^3+ + H2L ⇌ FeHL^2+ + H^+” value in data set [5] (acidic solution, footnote a) is listed as 4.38 ± 0.20 ^a. For the same molecule, in data set [5] (calculated with lgK2, footnote b), the “Formation constant lgKFeHL, Fe^3+ + HL^− ⇌ FeHL^2+” value is on record as 11.6 ± 0.2 ^b.

Take `Oc1ccccc1/C=C/c1cccs1` [II]: the IC50 is 15.7 ± 1 µM in data set [1], 4.6 ± 0.1 µM in data set [2] and 159 µM in data set [6].

As for `O=c1cc(/C=C/c2ccsc2)occ1O` [trans-6, (E)-5-hydroxy-2-(2-(thiophen-3-yl)vinyl)-4H-pyran-4-one], the IC50 in data set [1] is above 1000 µM; in data set [2], 426 ± 41.8 µM; in data set [3] it was above 1000 µM. Besides, the “Protonation constant lgK1” value in data set [4] is 7.81 ± 0.15. Besides, in data set [5] (acidic solution), the “Apparent formation constant lgK'FeL” value was found to be 4.75 ± 0.10. For the same molecule, the “Formation constant lgKFeL, Fe^3+ + L^− ⇌ FeL^2+” value in data set [5] is given as 12.56 ± 0.15.

With `O=c1cc(C=Cc2cccs2)occ1O` [compound 7, 5-hydroxy-2-(2-(thiophen-2-yl)vinyl)-4H-pyran-4-one], the “AChE IC50” value in data set [1] is reported as “completely missed any tested bioactivity”. For the same molecule, the “BChE IC50” value in data set [2] is given as “completely missed any tested bioactivity”. For the same molecule, the “DPPH IC50” value in data set [3] is “completely missed any tested bioactivity”.

Take `O=c1cc(/C=C\c2ccc(Cl)cc2Cl)occ1O` [cis-4, (Z)-2-(2,4-dichlorostyryl)-5-hydroxy-4H-pyran-4-one]: the IC50 in data set [1] is 1000 ± 10.1 µM; in data set [2], 638 ± 25.8 µM; in data set [3], above 1000 µM. Besides, the “Protonation constant lgK1” value in data set [4] came to 7.99 ± 0.15. Besides, the “Apparent formation constant lgK'FeL” value in data set [5] (acidic solution) stood at 4.16 ± 0.10. Also, in data set [5], the “Formation constant lgKFeL, Fe^3+ + L^− ⇌ FeL^2+” value is on record as 12.15 ± 0.15.

Take `Oc1ccc(/C=C/c2cccs2)c(O)c1` [III]: the IC50 was 46.6 ± 8.3 µM in data set [1], 5.3 ± 1.8 µM in data set [2] and 26.8 µM in data set [6].
